{"source": "patent US10837058B2", "about": "“Markers of papillary and reticular fibroblasts and uses thereof” (CHANEL PARFUMS BEAUTE, priority 2011, dated 2020)", "format_in_all_cases": "cell-based, human", "key": {"[1]": {"test_system": "reticular or papillary fibroblasts", "assay": "Compound screening on reticular or papillary fibroblasts, qPCR of 3 papillary and 3 reticular markers", "conditions": "high=0.01% v/v, low=0.0001% v/v, 24 hrs; CCRL1, NTN1, PDPN, MGP, PPP1R14A, TGM2; FIG. 2", "experimental": "The fibroblasts were isolated and cultured as described above (example 1).\n12000 reticular or papillary fibroblasts were seeded in 12 well culture plates (Costar). The fibroblasts were cultured for 5 days until 90% of the surface area was covered. Two different concentrations (low/high) of compounds were applied for 24 hrs. Pictures were taken before and after application. No differences in morphology and were observed (data not shown). RNA was isolated as described in example 1.\nqPCR analysis was performed using 3 papillary (CCRL1, NTN1 and PDPN) and 3 reticular (MGP, PPP1R14A and TGM2) markers, according to example 1. The expression was normalized using two reference genes (SND1 and EI24). The effect of verbascoside was determined by comparing the expression of the genes to the expression of vehicle treated fibroblasts."}, "[2]": {"test_system": "papillary fibroblasts", "assay": "TGF-β1 treatment of monolayer papillary fibroblasts, marker expression by qPCR", "conditions": "TGF-β1 2 or 10 ng/mL, 2 or 4 days", "experimental": "cDNA was generated of 1 μg RNA using the iScript cDNA synthesis kit (BioRad, Veenendaal, The Netherlands) according to manufacturer's instructions. PCR reactions were based on the SYBR Green method (BioRad) and consisted of 2× Sybr Green Mastermix, 1 ng cDNA template and 500 nM of forward and reverse primers. The PCRs were run on the MyIQ system (BioRad). The PCR cycles were: 3,5 minutes at 95 C to activate the polymerase, 35 cycles of 20 sec 95 C and 40 sec 60 C, followed by the generation of a melt curve. Primers were checked before on dilution series of normal fibroblasts cDNA. References genes were analyzed with the GeNorm method (20). Expression analysis was performed with the BioRad Software (iQ5) and was based on the delta delta Ct method with the reference genes that were most stably expressed in the GeNorm analysis.\n(§1) Monolayer cultures of papillary fibroblasts were treated with TGF-β1, 2 or 10 ng/mL, for 2 or 4 days. Then the expression of the reticular and papillary markers was measured by qPCR and by IHC staining on the cultures."}, "[3]": {"test_system": "papillary fibroblasts", "assay": "TGF-β1 treatment of monolayer papillary fibroblasts, IHC staining and morphology", "conditions": "TGF-β1 2 or 10 ng/mL, 2 or 4 days", "experimental": "For IHC on monolayer cell cultures, fibroblasts were grown on glass slides until nearly confluent, washed in PBS and fixed with 4% formaldehyde. Staining was visualized by a secondary antibody with a fluorescent dye (Cy3). DAPI was used as counterstain.\nas §1"}}, "data": [{"molecule": "C[C@@H]1O[C@@H](O[C@@H]2[C@@H](O)[C@H](OCCc3ccc(O)c(O)c3)O[C@H](CO)[C@H]2OC(=O)/C=C/c2ccc(O)c(O)c2)[C@H](O)[C@H](O)[C@H]1O", "note": "[Verbascoside]", "values": [{"measurement": "effect on reticular/papillary marker gene signature (qPCR, vs vehicle treated fibroblasts)", "setting": "[1]", "value": "able to alter the reticular signature into a papillary signature"}]}, {"molecule": "TGF-β1: TGF-β1, can induce differentiation of fibroblasts to myofibroblasts", "values": [{"measurement": "differentiation of papillary fibroblasts as measured by qPCR", "setting": "[2]; monolayer cell cultures", "value": "caused differentiation to reticular fibroblasts"}, {"measurement": "expression of papillary markers (qPCR)", "setting": "[2]; data not shown", "value": "decreased"}, {"measurement": "expression of reticular markers (qPCR)", "setting": "[2]; data not shown", "value": "increased"}, {"measurement": "myofibroblast differentiation: a-SMA expression", "setting": "[3]", "value": "increased a-SMA expression"}, {"measurement": "myofibroblast differentiation: morphological changes", "setting": "[3]", "value": "increase in cell size"}, {"measurement": "papillary marker PDPN by IHC staining", "setting": "[3]", "value": "loss of papillary marker PDPN"}, {"measurement": "reticular marker TGM2 by IHC staining", "setting": "[3]", "value": "gain of reticular marker TGM2"}]}]}
